Experimental data reported in patent US7754772B2, “Nitrosated nonsteroidal antiinflammatory compounds, compositions and methods of use” (NicOx, S.A., priority 2002, dated 2010).
Read-outs that look alike come from different tables or passages of the source.

Key:
[1] = system: Male Sprague Dawley rats, gastric hemorrhagic lesion; assay: rat gastric lesion test; details: rat fasted 24 hours, oral gavage, lesion score (summed length, mm) three hours after dosing; ratio relative to parent NSAID (Naproxen = 1)
Method: (§1) Male Sprague Dawley rats (Charles River Laboratories, Wilmington, Mass.) weighing 230-250 g were used for the experiments. The rats were housed with laboratory chow and water ad libitum prior to the study. The rats were fasted for 24 hours with free access to water and then dosed by oral gavage with vehicle or with test compounds given at a volume of 0.5 mL/100 g. […] Rats were euthanized by CO2 three hours after dosing. The stomachs were dissected along the greater curvature, washed with a directed stream of 0.9% saline and pinned open on a sylgard based petri dish for examination of the hemorrhagic lesion. Gastric lesion score was expressed in mm and calculated by summing the length of each lesion.

[2] = system: Male Sprague-Dawley rats, carrageenan paw edema; assay: rat paw edema test (carrageenan), antiinflammatory activity; assay type: in vivo
Method: The rat paw edema test was used to measure the antiinflammatory activity. The rat paw edema test was performed according to the method of Winter et al, Proc. Soc. […] Male Sprague-Dawley rats (250-275 g) were fasted overnight and dosed by oral gavage with vehicle or suspensions of compound one hour prior to the subplantar injection of 50 μl of 1% suspension of carrageenan. Three hours later, the paw volume was measured and compared with the initial volume measured immediately after carrageenan injection.

[3] = system: Male Sprague Dawley rats, gastric hemorrhagic lesion; details: rat, in vivo, po
Method: as §1

[4] = oral gavage one hour prior to subplantar carrageenan, paw volume three hours later, expressed as ratio (Vehicle = 1)

SMILES: COc1ccc2cc([C@H](C)C(=O)OCCS(=O)(=O)CCO[N+](=O)[O-])ccc2c1 [Example 2, 2-((2-(Nitrooxy)ethyl)sulfonyl)ethyl (2S)-2-(6-methoxy(2-naphthyl)) propanoate]
- Relative Activity Gastric Lesion [1]: 0.11
- Relative Activity Antiinflammation [2, 4]: 0.49

SMILES: COc1ccc2cc(C(C)C(=O)OCCN(CCO[N+](=O)[O-])c3ccc([N+](=O)[O-])cc3)ccc2c1 (centres unmarked) [Example 4, 2-((2-(Nitrooxy)ethyl)4-nitrophenyl)amino)ethyl 2-(6-methoxy-2-naphthyl) propanoate]
- Relative Activity Gastric Lesion [3]: 0.04
- Relative Activity Antiinflammation [2, 4]: 0.92

SMILES: COc1ccc2cc([C@H](C)C(=O)OC[C@H](CO[N+](=O)[O-])O[N+](=O)[O-])ccc2c1 [Example 5]
- Relative Activity Gastric Lesion [3]: 0.21
- Relative Activity Antiinflammation ([2]; in vivo, po): 0.45

SMILES: COc1ccc2cc([C@H](C)C(=O)OCC3(CO[N+](=O)[O-])COCOC3)ccc2c1 [Example 9]
- Relative Activity Gastric Lesion [1]: 0.02
- Relative Activity Antiinflammation [2, 4]: 0.69

SMILES: COc1ccc2cc([C@H](C)C(=O)OCC(C)(CO[N+](=O)[O-])[N+](=O)[O-])ccc2c1 (stereo partly drawn) [Example 12, 2-Methyl-2-nitro-3-(nitrooxy)propyl(2S)-2-(6-methoxy(2-naphthyl)) propanoate]
- Relative Activity Gastric Lesion [1]: 0.18
- Relative Activity Antiinflammation [2, 4]: 0.47

SMILES: COc1ccc2cc([C@H](C)C(=O)OCC(=O)N3CCC(CO[N+](=O)[O-])CC3)ccc2c1 [Example 19, 2-(4-((Nitrooxy)methyl)piperidyl)-2-oxoethyl (2S)-2-(6-methoxy(2-naphthyl))propanoate]
- Relative Activity Gastric Lesion [3]: 0.30
- Relative Activity Antiinflammation [2, 4]: 0.60

SMILES: COc1ccc2cc([C@H](C)C(=O)OCC(=O)O[C@@H]3CO[C@H]4[C@H]3OC[C@H]4O[N+](=O)[O-])ccc2c1 [Example 26, (1S,5S,2R,6R)-6-(Nitrooxy)-4,8-dioxabicyclo(3.3.0)oct-2-yl)oxycarbonyl) methyl (2S)-2-(6-methoxy (2-naphthyl)) propanoate]
- Relative Activity Gastric Lesion [1]: 0.07
- Relative Activity Antiinflammation [2, 4]: 0.75

SMILES: COc1ccc2cc([C@H](C)C(=O)OC[C@@H](O)CO[N+](=O)[O-])ccc2c1 [Example 28, (2R)-2-hydroxy-3-(nitrooxy)propyl (2S)-2-(6-methoxy(2-naphthyl)) propanoate]
- Relative Activity Antiinflammation [2, 4]: 0.57

SMILES: COc1ccc2cc([C@H](C)C(=O)OCC(=O)N3CCC(CCO[N+](=O)[O-])CC3)ccc2c1 [Example 31, 2-(4-(2-(nitrooxy)ethyl)piperidyl)-2-oxoethyl (2S)-2-(6-methoxy(2-naphthyl))propanoate]
- Relative Activity Gastric Lesion [3]: 0.06
- Relative Activity Antiinflammation [2, 4]: 0.61

SMILES: COc1ccc2cc([C@H](C)C(=O)Oc3ccccc3C(=O)OCCO[N+](=O)[O-])ccc2c1 [Example 33]
- Relative Activity Gastric Lesion [3]: 0.07
- Relative Activity Antiinflammation [2, 4]: 0.60

SMILES: COc1ccc2cc([C@H](C)C(=O)NOCC(=O)N3CCC(CO[N+](=O)[O-])CC3)ccc2c1 [Example 35, (2S)-2-(6-Methoxy(2-naphthyl))-N-(2-(4-((nitrooxy)methyl)piperidyl)-2-oxoethoxy)propanamide]
- Relative Activity Antiinflammation [2, 4]: 0.06

SMILES: COc1ccc2cc([C@H](C)C(=O)Oc3cccc(C(=O)OCCO[N+](=O)[O-])c3)ccc2c1 [Example 36]
- Relative Activity Gastric Lesion [3]: 0.57
- Relative Activity Antiinflammation ([2]; in vivo, po): 0.65

SMILES: COc1ccc2cc([C@H](C)C(=O)OCC(=O)N3CCN(CCO[N+](=O)[O-])CC3)ccc2c1.Cl [Example 37, 2-(4-(2-(Nitrooxy)ethyl)piperazinyl)-2-oxoethyl (2S)-2-(6-methoxy(2-naphthyl))propanoate hydrogen chloride]
- Relative Activity Gastric Lesion [3]: 0.72
- Relative Activity Antiinflammation ([2]; in vivo, po): 0.56

SMILES: COc1ccc2cc([C@H](C)C(=O)OCCOc3ccc(OCCO[N+](=O)[O-])cc3)ccc2c1 [Example 39, 2-(4-(2-(Nitrooxy)ethoxy)phenoxy)ethyl (2S)-2-(6-methoxy(2-naphthyl))propanoate]
- melting point: 67 to 69 °C
- Relative Activity Gastric Lesion [1]: 0.04
